Measurements as given in patent US12310986B2, “Compositions and methods for the treatment of cancer cells by induction of cytotoxic oxidative stress” (Board of Regents, The University of Texas System, priority 2018, dated 2025).
“Also recorded” adds a separate entry of the source.

Experiments:
HCT116 cells [1] = test: Apoptosis flow cytometric assay, Annexin V FITC, HCT116 cells; type: cell-based, human; settings: HCT116, 72 hours; VC or D-VC 1 mM, ATO 5 μM
Experimental: FIG. 2: Apoptotic flow cytometric analysis of HCT116 cancer following drug treatments. HCT116 cells were treated with the drugs as described in the FIG. 1 and following treatments the cells were stained with Annexin-V FITC and sorted.
FIG. 3: Graphical representation of apoptosis by flow cytometry data. Apoptotic flow cytometric data shown in the FIG. 2 is presented as a graph.

HCT116 cells [2] = test: Reactive oxygen species (ROS) detection by flow cytometry, Mito Sox Red, HCT116 cells; type: cell-based, human; settings: VC or D-VC 1 mM, ATO 5 μM
Experimental: FIG. 4: Detection of reactive oxygen species (ROS) by flow cytometry. HCT116 cells were treated with the indicated compounds as described in the FIG. 1 and analyzed by flow cytometry to detect the presence of reactive oxygen species by Mito Sox Red reagent. Mito Sox Red is a reagent from Invitrogen™ catalog #LSM360084
FIG. 5: Graphical representation of the presence of reactive oxygen species (ROS) as detected by flow cytometry. The ROS detection data shown in the FIG. 4 is presented as a graph.
It was anticipated that the cause of cytotoxic stress and apoptosis was the accumulation of reactive oxygen species (ROS), so HCT116 cells were treated as above and assayed for the presence of ROS by flow cytometry (FIG. 4). […] Treatment with 5 μM ATO increased the cells showing ROS accumulation to 26% (FIGS. 4 and 5).

HCT116 xenograft tumors = test: HCT116 (KRAS mutant) xenograft tumors in nude mice; type: in vivo; settings: VC or D-VC 1.5 g/kg, ATO 7 mg/kg; for effect on tumor growth compared to PBS (control) injections: 15 injections; for scarring on tumors (mice with scarring): 5 mice per group; for tumor weight compared to PBS treated tumors: after 15 injections, one way ANOVA
Experimental: Pictured are the xenograft tumors of each of the 5 mice per treatment condition. Mice were injected intraperitoneally with PBS (control), Vitamin C (1.5 g/kg), D-Vitamin C (1.5 g/kg), ATO 7 mg/kg), ATO (7 mg/kg)+Vitamin C (1.5 g/kg) or ATO (7 mg/kg)+D-Vitamin C (1.5 g/kg). Mice were injected daily for 6 days and after 6th injection mice were rested for one day.
Pictured are the xenograft tumors of each of the 5 mice per treatment condition as described in FIG. 6 after 12 injections (2 weeks of treatment).
To avoid glucose fluctuations in blood, the food was withdrawn from mice 2 hrs prior drug injections and food was given back to mice after 2 hrs of the VC or D-VC injection.
1.5 million human HCT116 (KRAS mutant) cancer cells were injected into nude mice, 5 mice per experimental group. After 10 days, and after when tumors reached at least 0.8 cm in size, mice were injected daily with either PBS, PBS+1.5 g/kg vitamin C, PBS+7 mg/kg ATO. PBS+7 mg/kg ATO+1.5 g/kg vitamin C, PBS+1.5 g/kg D-Vitamin C, or PBS+7 mg/kg ATO+1.5 g/kg D-Vitamin C. The mice were injected daily, 6 times per week, and rested one day per week, for a total of 15 total drug injections. […] Initially, ATO was injected at 3 mg/kg, while vitamin C or D-VC were injected at 1 g/kg. The following day, ATO was used at 7 mg/kg, while vitamin C and D-VC were used at […].
The injection scheme was ATO injection/2 hour gap/vitamin C or D-VC injection. […] Further, it is also known that the effect of vitamin C treatment on KRAS mutant cancer cells is glucose dependent, To avoid glucose fluctuations in the blood and enhance the effect of vitamin C and D-VC, the drug injections were performed following withdrawal of the food from mice 2 hours prior ATO injections, and the food was only provided again 2 hours following the vitamin C or D-VC injections.

HCT116 cancer cells = test: Cytotoxicity in colorectal HCT116 cancer cells, 72 hours treatment (cell images); type: cell-based, human; settings: HCT116, 72 hours; VC or D-VC 1 mM, ATO 5 μM; compared to buffer
Experimental: Colorectal HCT116 cancer cells were treated with the indicated solutions for 72 hours: control (phosphate buffered saline, PBS, was added to the culture medium in 1:1000 dilution), VC 1 mM (Vitamin C was used at 1 mM concentration), D-VC 1 mM (D-Vitamin C was used at 1 mM concentration), ATO 5 μM (Arsenic Trioxide was used at 5 μM concentration) and the combination of VC 1 mM with ATO 5 μM or D-VC 1 mM with ATO 5 μM. The cell images are shown with the labeling indicating cell treatments.
Colorectal HCT116 cancer cells were treated for 72 hours with PBS, a 1 mM Vitamin C (VC) solution, 1 mM D-Vitamin CVC (D-VC also referred as D-ascorbic acid), 5 μM arsenic trioxide (ATO), Vitamin C and ATO (VC/ATO), or D-VC and ATO (D-VC/ATO) (FIG. 1).

[3] = after 12 injections (2 weeks of treatment)

| Molecule | apoptosis (Annexin V FITC) (HCT116 cells [1]) | cells accumulating ROS (HCT116 cells [2]) | effect on tumor growth compared to PBS (control) injections (HCT116 xenograft tumors) | scarring on tumors (mice with scarring) (HCT116 xenograft tumors; after 9 injections / within the first week of injections, intraperitoneally) | scarring on tumors (mice with scarring) (HCT116 xenograft tumors; [3]) | tumor weight compared to PBS treated tumors (HCT116 xenograft tumors) | cytotoxicity (HCT116 cancer cells) |
| --- | --- | --- | --- | --- | --- | --- | --- |
| O=C1O[C@@H]([C@H](O)CO)C(O)=C1O [D-VC, D-ascorbic acid] | level of apoptosis similar to the buffer control | about 5% | inhibitory effect on tumor growth; also recorded: appeared to be more effective alone but its effect was not consistent | 2/5 | 2/5 | lower compared to the PBS treated tumors, however these differences were not statistically significant | – |
| O=C1O[C@H]([C@@H](O)CO)C(O)=C1O [VC, L-ascorbic acid] | level of apoptosis similar to the buffer control | about 5% | inhibitory effect on tumor growth | – | – | lower compared to the PBS treated tumors, however these differences were not statistically significant | – |
| arsenic trioxide [ATO] | low increase in apoptosis over the buffer control | 26% | inhibitory effect on tumor growth | – | 2/5 | lower compared to the PBS treated tumors, however these differences were not statistically significant | mild cytotoxic impact |
